Measurements as given in patent US20070015739A1, “Use of non-antibacterial tetracycline formulations for inhibiting bacterial spores” (priority 2005, published 2007).
“Also recorded” adds a separate entry of the source. Where two headings read alike, the source gives them in different places.

Columns and labels:
B. anthracis spores = details: guinea pig, in vivo; cited from earlier work
[1] = tested on: spores (Bacillus cereus ATCC 10987); type: cell-based
[2] = tested on: Bacillus cereus ATCC 10987 spores; type: cell-based
[3] = Plasma or serum concentration in humans; details: dose of about 10 to about 20 mg/day

Compound | death of infected animals during treatment (B. anthracis spores) | early germination (Gram stain) [1] | minimum concentration to inhibit outgrowth [1] [μg per ml] | outgrowth into vegetative cells [1] | development of spores into vegetative cells (Gram stain) ([1]; time=40 min) | development of spores into vegetative cells (Gram stain) ([1]; time=60 min) | rate of decrease in absorbance in the presence and absence of COL-3 [2] | inhibition of the early phase (initial stages) of germination ([2]; 37° C.) | plasma or serum concentrations [3]
CN(C)[C@@H]1C(O)=C(C(N)=O)C(=O)[C@@]2(O)C(O)=C3C(=O)c4c(O)cccc4[C@@](C)(O)[C@H]3C[C@@H]12 [tetracycline] | prevented death |  |  |  |  |  |  |  | 
NC(=O)C1=C(O)C[C@@H]2C[C@@H]3Cc4cccc(O)c4C(=O)C3=C(O)[C@]2(O)C1=O [COL-3, 6-demethyl-6-deoxy-4-de(dimethylamino)tetracycline] |  | occurred in both the presence and absence of COL-3 | 1 | inhibited | no further development | do not develop | not significantly different | did not inhibit; also recorded: no effect | about 1.0 μg/ml
